Experiments:
[1] = Visual corrosion testing on grease-coated wireline (Example 7); settings: MEA-HCl 1:4.1 molar ratio at 33% dilution in water; 48 hours; 60° C.
Description: A visual corrosion testing was carried out on wireline using three different coatings.
It is worth noting that the acid strength was the same in all three samples and the acidic composition only differed between the first two samples and the last sample with the presence of component B2.

[2] = Corrosion testing of 316 steel coupons in acidic fluids with corrosion inhibitors
Description: Corrosion inhibitor compositions according to preferred embodiments of the present invention were exposed to corrosion testing. Various steel grades (stainless steel and carbon steel) were subjected to acid compositions comprising corrosion inhibitors according to the present invention against known corrosion inhibitors to the listed compositions for various periods of time at varying temperatures. A desirable corrosion inhibition result was one where the lb/ft^2 corrosion number is at or below 0.05. More preferably, that number is at or below 0.02.
33% HCl:MEA in a 5.5:1 ratio and 50% HCl:MEA in a 5.5:1 ratio indicate the volume amount of the original concentration of a stock solution containing HCl and monoethanolamine in a ratio of 5.5:1. The HCl loading of a 33% HCl:MEA in a 5.5:1 ratio is approximately 6.5% HCl. The HCl loading of 50% HCl:MEA in a 5.5:1 ratio is approximately 10% HCl.

Compound | visual inspection of wireline wire sheathing after acid exposure [1] | prevention of pitting ([2]; higher temperatures (even 110° C. to 120° C.)) | film forming, protection of the stainless steel ([2]; 90° C. to 110° C.)
CC(C)=CCCC(C)=CC=O (racemic) [citral, (±)-3,7-Dimethyl-2,6-octadienal] | completely stripped of its wire sheathing | some effectiveness | –
O=CC=Cc1ccccc1 [ZA, cinnamaldehyde] | – | – | effective film former

From US11840913B2, “Methods for stimulation of hydrocarbon-bearing formations while inhibiting corrosion of metal surfaces contacted by acid solutions used in stimulation” (Fluid Energy Group Ltd., priority 2019, dated 2023)
